Reference: patent US20260226084A1, “DUAL RAF AND TUBULIN INHIBITORS AND METHODS OF USE THEREOF” (Deciphera Pharmaceuticals, LLC, priority 2023, published 2026)
Read-outs that look alike come from different tables or passages of the source.

Key:
Pa16c cells = assay: Pa16c Cell Proliferation Assay; type: cell-based; details: Table 2, read-out: Inhibition of cell proliferation in Pa16c (IC50 class)
In short: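 Proliferation read-out: resazurin fluorescence (540 nm excitation, 600 nm emission) after an extra 18 to 24 h. Before that, compound dilution series (triplicate) stayed on 750 Pa16c cells/well in complete DMEM/10% FBS for 67 to 72 h at 37° C. IC50 values derived from the curves.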

HCT-116 cells = assay: HCT-116 Cell Proliferation Assay; type: cell-based; details: Homo sapiens
In short: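 IC50 values come from resazurin fluorescence (540 nm excitation, 600 nm emission) added for 4 to 5 h after compound treatment. Treatment: serially diluted compound in triplicate on 375 HCT-116 cells per well in complete McCoy's 5A/10% FBS, 67 to 72 hours, 37 °C, 5% CO2.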

MiaPaca-2 cells = assay: MiaPaca-2 Cell Proliferation Assay; type: cell-based; details: Homo sapiens
In short: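 Viability was read as resazurin fluorescence (540 nm excitation, 600 nm emission) after 5–6 h with dye. Compounds were tested as serial dilutions in triplicate, with IC50 derived from the dose–response.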

HPAF-II cells = assay: HPAF-II Cell Proliferation Assay; type: cell-based; details: Homo sapiens, HPAF-II
In short: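 Viability read-out was resazurin fluorescence (540 nm excitation, 600 nm emission), developed 18–24 h after a 115–120 h compound exposure of 750 HPAF-II cells per well in MEM/10% FBS at 37 °C. Compound was tested as a serial dilution in triplicate, and IC50 values were calculated.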

[1] = biological target: T1, B-Raf kinase (SEQ ID NO: 1) (Homo sapiens, UniProt P15056); assay: Biochemical Assay for B-Raf (coupled pyruvate kinase/lactate dehydrogenase assay)
T1 construct: GST (N); purchased Sigma
T1 sequence (P15056 416-766): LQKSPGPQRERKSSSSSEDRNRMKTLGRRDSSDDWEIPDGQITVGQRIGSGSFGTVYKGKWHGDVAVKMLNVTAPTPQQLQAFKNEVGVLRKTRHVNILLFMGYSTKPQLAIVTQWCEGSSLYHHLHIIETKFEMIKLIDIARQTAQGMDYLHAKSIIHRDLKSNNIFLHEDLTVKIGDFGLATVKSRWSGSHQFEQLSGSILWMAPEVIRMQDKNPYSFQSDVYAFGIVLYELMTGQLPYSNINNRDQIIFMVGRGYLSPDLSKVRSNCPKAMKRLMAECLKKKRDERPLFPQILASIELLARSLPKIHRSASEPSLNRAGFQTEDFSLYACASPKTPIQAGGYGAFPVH

[2] = biological target: T2, C-Raf kinase (SEQ ID NO: 2) (Homo sapiens, UniProt P04049, Y340D/Y341D); assay: Biochemical Assay for C-Raf (coupled pyruvate kinase/lactate dehydrogenase assay)
T2 construct: C-Raf residues 306-end; Y340D, Y341D with; GST (N); purchased Sigma
T2 sequence (P04049 307-648 Y340D/Y341D): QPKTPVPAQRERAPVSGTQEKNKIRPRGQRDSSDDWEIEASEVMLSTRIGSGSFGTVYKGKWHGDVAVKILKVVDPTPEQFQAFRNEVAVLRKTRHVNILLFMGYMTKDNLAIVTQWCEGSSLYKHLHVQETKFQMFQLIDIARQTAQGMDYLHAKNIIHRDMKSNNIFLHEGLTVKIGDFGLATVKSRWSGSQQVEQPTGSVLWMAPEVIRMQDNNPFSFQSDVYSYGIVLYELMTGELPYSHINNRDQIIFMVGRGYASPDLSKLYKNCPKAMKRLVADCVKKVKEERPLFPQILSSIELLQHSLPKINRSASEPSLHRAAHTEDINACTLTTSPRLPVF

Porcine Brain Tubulin = biological target: T3, Porcine Brain Tubulin (Sus scrofa, UniProt P02550+P02554); assay: Biochemical Tubulin Polymerization Assay; details: Table 4, representative compounds from PCT/US2022/081242; read-out: Tubulin Biochem IC50
T3 construct: Porcine Brain Tubulin (T240); purchased Cytoskeleton, Inc T240; BK011P; host or cells: porcine brain (tissue-purified)
T3 sequence (P02550 whole entry): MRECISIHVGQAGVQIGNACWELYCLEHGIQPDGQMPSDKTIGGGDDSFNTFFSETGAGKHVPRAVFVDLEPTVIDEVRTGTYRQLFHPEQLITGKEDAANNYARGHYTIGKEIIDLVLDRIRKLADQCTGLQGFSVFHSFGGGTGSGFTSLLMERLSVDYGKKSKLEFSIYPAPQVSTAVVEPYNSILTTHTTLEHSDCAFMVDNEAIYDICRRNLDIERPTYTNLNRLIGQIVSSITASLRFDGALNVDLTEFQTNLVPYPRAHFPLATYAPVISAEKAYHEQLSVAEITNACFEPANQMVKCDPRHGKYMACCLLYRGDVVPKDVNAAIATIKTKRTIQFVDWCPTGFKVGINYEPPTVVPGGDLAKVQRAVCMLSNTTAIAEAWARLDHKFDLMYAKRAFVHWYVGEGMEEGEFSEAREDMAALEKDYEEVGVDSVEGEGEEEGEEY
T3 sequence (P02554 whole entry): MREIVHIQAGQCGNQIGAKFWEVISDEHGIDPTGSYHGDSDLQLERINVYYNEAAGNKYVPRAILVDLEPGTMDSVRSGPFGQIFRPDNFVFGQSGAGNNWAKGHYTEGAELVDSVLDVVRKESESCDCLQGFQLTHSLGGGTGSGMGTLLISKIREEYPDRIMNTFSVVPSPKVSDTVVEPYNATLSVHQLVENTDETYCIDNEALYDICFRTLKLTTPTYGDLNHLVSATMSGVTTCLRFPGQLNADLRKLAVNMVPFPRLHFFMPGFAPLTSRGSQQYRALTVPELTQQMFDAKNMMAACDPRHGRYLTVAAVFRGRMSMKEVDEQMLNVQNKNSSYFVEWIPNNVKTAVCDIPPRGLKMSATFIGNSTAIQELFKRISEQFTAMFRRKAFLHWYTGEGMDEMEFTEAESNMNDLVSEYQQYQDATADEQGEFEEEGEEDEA

[3] = HCT-116, HCT-116 cells, Table 2, read-out: Inhibition of cell proliferation in HCT-116 (IC50 class)
[4] = MIA PaCa-2, MiaPaca-2 cells, Table 2, read-out: Inhibition of cell proliferation in MiaPaca-2 (IC50 class)
[5] = HPAF-II cells, Table 2, read-out: Inhibition of cell proliferation in HPAF-II (IC50 class)
[6] = 1 mM ATP, read-out: BRAF (inhibition of biochemical activity, IC50)
[7] = 1 mM ATP, read-out: CRAF (inhibition of biochemical activity, IC50)
[8] = HCT-116, Table 4, HCT-116 mutant KRAS colorectal cancer cell line, read-out: HCT-116 IC50
[9] = MIA PaCa-2, Table 4, MiaPaca-2 mutant KRAS pancreatic cancer cell line, read-out: MiaPaca-2 IC50
[10] = Table 4, HPAF-II mutant KRAS pancreatic cancer cell line, read-out: HPAF-II IC50
[11] = Table 4, representative compounds from PCT/US2022/081242, read-out: BRAF IC50
[12] = Table 4, representative compounds from PCT/US2022/081242, read-out: CRAF IC50

| Structure (SMILES) | IC50 (Pa16c cells) [nM] | IC50 (HCT-116 cells; [3]) [nM] | IC50 (MiaPaca-2 cells; [4]) [nM] | IC50 (HPAF-II cells; [5]) [nM] | IC50 [1, 6] [nM] | IC50 [2, 7] [nM] | IC50 (HCT-116 cells; [8]) [nM] | IC50 (MiaPaca-2 cells; [9]) [nM] | IC50 (HPAF-II cells; [10]) [nM] | IC50 (Porcine Brain Tubulin) [nM] | IC50 [1, 11] [nM] | IC50 [2, 12] [nM] |
| --- | --- | --- | --- | --- | --- | --- | --- | --- | --- | --- | --- | --- |
| Cc1ccc(NC(=O)c2cnc(C(F)(F)F)nc2)cc1-c1cc(N[C@H](C)CO)nc(-c2cn[nH]c2)c1 [Example 133] | 1000 to 10000 | 100 to 500 | 100 to 500 | 1000 to 10000 | 100 to 500 | < 100 |  |  |  |  |  |  |
| Cc1ccc(NC(=O)c2cc(OC(F)F)cnn2)cc1-c1ccnc(-c2ccnc(NC(=O)C3CC3)c2)c1 [Example 134] | 100 to 500 | 100 to 500 | 500 to 1000 | 1000 to 10000 | < 100 | < 100 |  |  |  |  |  |  |
| Cc1ccc(NC(=O)c2cc(C(F)(F)F)cnn2)cc1-c1ccnc(-c2cncn2C)c1 [Example 135] | 100 to 500 | 100 to 500 | 100 to 500 | 100 to 500 | < 100 | < 100 |  |  |  |  |  |  |
| Cc1ccc(NC(=O)c2cc(C3CC3)cnn2)cc1-c1ccnc(-c2cnsc2)c1 [Example 136] | 100 to 500 | 100 to 500 | 100 to 500 | 100 to 500 | 100 to 500 | < 100 |  |  |  |  |  |  |
| Cc1ccc(NC(=O)c2cc(C(C)(F)F)cnn2)cc1-c1ccnc(-c2cnsc2)c1 [Example 137] | 500 to 1000 | 100 to 500 | 100 to 500 | 100 to 500 | 100 to 500 | < 100 |  |  |  |  |  |  |
| Cc1ccc(NC(=O)c2cc(C(C)(F)F)cnn2)cc1-c1ccnc(-c2cncn2C)c1 [Example 138] | 100 to 500 | 100 to 500 | 100 to 500 | 100 to 500 | < 100 | < 100 |  |  |  |  |  |  |
| Cc1ccc(NC(=O)c2cc(C(F)(F)F)cnn2)cc1-c1ccnc(-c2cnn(C)n2)c1 [Example 139] | 500 to 1000 | 100 to 500 | 100 to 500 | 100 to 500 | 100 to 500 | < 100 |  |  |  |  |  |  |
| Cc1ccc(NC(=O)c2cc(C(C)(F)F)cnn2)cc1-c1ccnc(-c2cnn(C)n2)c1 [Example 140] | 1000 to 10000 | 100 to 500 | 100 to 500 | 500 to 1000 | 100 to 500 | < 100 |  |  |  |  |  |  |
| Cc1ccc(NC(=O)c2cc(C3CC3)cnn2)cc1-c1ccnc(-c2cnn(C)n2)c1 [Example 141] | 500 to 1000 | 500 to 1000 | 500 to 1000 | 500 to 1000 | 100 to 500 | 100 to 500 |  |  |  |  |  |  |
| Cc1ccc(NC(=O)c2cc(C(F)(F)F)cnn2)cc1-c1ccnc(-c2cscn2)c1 [Example 142] | 100 to 500 | 100 to 500 | 500 to 1000 | 100 to 500 | 500 to 1000 | 500 to 1000 |  |  |  |  |  |  |
| Cc1ccc(NC(=O)c2cc(C(C)(F)F)cnn2)cc1-c1ccnc(-c2cscn2)c1 [Example 143] | 1000 to 10000 | 100 to 500 | 100 to 500 | 100 to 500 | 1000 to 10000 | 1000 to 10000 |  |  |  |  |  |  |
| Cc1ccc(NC(=O)c2cc(C3CC3)cnn2)cc1-c1ccnc(-c2ccsc2)c1 [Example 144] | 100 to 500 | 100 to 500 | 100 to 500 | 100 to 500 | 1000 to 10000 | 1000 to 10000 |  |  |  |  |  |  |
| Cc1ccc(NC(=O)c2cc(C(F)(F)F)cnn2)cc1-c1ccnc(-c2ccoc2)c1 [Example 145] | 100 to 500 | 100 to 500 | 100 to 500 | 100 to 500 | 100 to 500 | 100 to 500 |  |  |  |  |  |  |
| Cc1ccc(NC(=O)c2cc(C(F)(F)F)cnn2)cc1-c1ccnc(-c2ccsc2)c1 [Example 146] | < 100 | < 100 | < 100 | < 100 | 1000 to 10000 | 1000 to 10000 |  |  |  |  |  |  |
| Cc1ccc(NC(=O)c2cc(C3CC3)cnn2)cc1-c1ccnc(-c2ccoc2)c1 [Example 147] | 100 to 500 | 100 to 500 | 100 to 500 | 100 to 500 | 100 to 500 | 100 to 500 |  |  |  |  |  |  |
| Cc1ccc(NC(=O)c2cc(C(C)(F)F)cnn2)cc1-c1ccnc(-c2ccsc2)c1 [Example 148] | 100 to 500 | < 100 | 100 to 500 | 100 to 500 | 1000 to 10000 | 500 to 1000 |  |  |  |  |  |  |
| Cc1ccc(NC(=O)c2cc(C(C)(F)F)cnn2)cc1-c1ccnc(-c2ccoc2)c1 [Example 149] | 100 to 500 | 100 to 500 | 100 to 500 | 100 to 500 | 100 to 500 | 100 to 500 |  |  |  |  |  |  |
| Cc1ccc(NC(=O)c2cc(C(C)(F)F)cnn2)cc1-c1ccnc(-c2cnn(C)c2)c1 [Example 150] | 500 to 1000 | 100 to 500 | 100 to 500 | 100 to 500 | 100 to 500 | < 100 |  |  |  |  |  |  |
| Cc1ccc(NC(=O)c2cc(C#N)cnn2)cc1-c1cc(N[C@H](C)CO)nc(-c2ccnc(NC(=O)C3CC3)c2)c1 [Example 151] | 1000 to 10000 | 1000 to 10000 | 1000 to 10000 | 1000 to 10000 | 500 to 1000 | 500 to 1000 |  |  |  |  |  |  |
| Cc1ccc(NC(=O)c2ccnc(C(C)(C)F)c2)cc1-c1ccnc(-c2ccnc(NC(=O)C3CC3)c2)c1 [reference compound] |  |  |  |  |  |  | 100 to 500 | 1000 to 10000 | 500 to 1000 | > 100000 | < 100 | < 100 |
| Cc1ccc(NC(=O)c2ccnc(C(C)C)c2)cc1-c1ccnc(-c2ccnc(NC(=O)C3CC3)c2)c1 [reference compound] |  |  |  |  |  |  | 1000 to 10000 |  | 100 to 500 | > 100000 | < 100 | < 100 |
| Cc1ccc(NC(=O)c2ccnc(C3CC3)c2)cc1-c1ccnc(-c2ccnc(NC(=O)C3CC3)c2)c1 [reference compound] |  |  |  |  |  |  | 500 to 1000 | 1000 to 10000 | 1000 to 10000 | > 100000 | < 100 | < 100 |
